The values below come from US20240293305A1, “COMPOSITION WITH ANTIMICROBIAL OR ANTIFUNGAL ACTIVITY COMPRISING FERMENTED SCUTELLARIA BAICALENSIS EXTRACT, FERMENTED SALVIA MILTIORRHIZA EXTRACT AND FERMENTED DRYPTERIS CCRASSIRHIZOMA EXTRACT” (Sooy-K Co., LTD., priority 2023, published 2024).

Format in all cases: cell-based
In experiment [1] the test system is Candida albicans (C. albicans, KCTC 7965). The experiment is described as follows: Disc diffusion method, clear zone, C. albicans. The settings on record: Table 19 Antibiotic: ketoconazole (200 μg/mL). As for the experimental part: (§1) As the strains used for antibacterial activity experiments, Gram-positive bacteria Staphylococcus aureus (S. aureus, KCTC 1916), Gram-negative Escherichia coli (E. coli, KCTC 2571), Pseudomonas aeruginosa (P. aeruginosa, KCTC 2513), Candida albicans (C. albicans, KCTC 7965), and Aspergillus niger (A. niger, KCTC 6196), which were purchased from the Korean collection for Type Cultures (KCTC), were stored and used (Table 5). The inhibitory zones of the extracts were measured by a test method of antibacterial activity to determine the presence or absence of antibacterial activity and to compare the degree of effectiveness of the extracts against the proliferation of bacteria. The antibacterial activity was measured by the disc diffusion method using a paper disc (size: 8 mm, Advantec, Toyo Roshi Kaisha, Ltd., Tokyo, Japan). The strains were each inoculated in an amount of one platinum loop, diluted in 4 mL of sterile water, mixed with a sterilized medium, and the mixture was poured into a prepared plate to be hardened. A 3% extract each was filtered (pore size: 0.4 μm, Advantec MFS, Inc., Tokyo, Japan), and 40 μL was taken and allowed to be absorbed onto a paper disc. After culturing for 24 hours at an appropriate temperature for each strain, the size of the transparent ring formed around the paper disc was measured. [table]
(In general: In agar diffusion tests the substance spreads into inoculated agar from a disc or well.)

For experiment [2], the system named is Aspergillus niger (A. niger, KCTC 6196). The experiment is described as follows: Disc diffusion method, clear zone, A. niger. Conditions: KCTC6196, Table 19 Antibiotic: ketoconazole (200 μg/mL), read-out: Clear zone (ø, mm) A. niger. As for the experimental part:
as §1

Experiment [3] has as its system Staphylococcus aureus (S. aureus, KCTC 1916). Briefly: Disc diffusion method, clear zone, S. aureus. As for the experimental part: as §1
In experiment [4] the test system is Pseudomonas aeruginosa (P. aeruginosa, KCTC 2513). The experiment is described as follows: Disc diffusion method, clear zone, P. aeruginosa. Conditions: KCTC2513, Control Group Antibiotic: tetracycline (50 μg/mL), read-out: Clear Zone (ø, mm) P. aeruginosa. Here is the method: as §1
The test system of experiment [5] is Escherichia coli (E. coli, KCTC 2571). Briefly: Disc diffusion method, clear zone, E. coli. Here is the method:
as §1

Values joined by “and” are separate entries in the source; they are usually repeats but may differ in a detail not shown here. Equal values may be shown once.

Regarding `CC(=O)N1CCN(c2ccc(OCC3COC(Cn4ccnc4)(c4ccc(Cl)cc4Cl)O3)cc2)CC1` (centres unmarked) [ketoconazole], the “Clear zone (ø, mm) C. albicans” value in experiment [1] is “no antibacterial activity”. Moreover, in experiment [2], the zone of inhibition at 200 µg/mL stood at 13.2 mm.

On to `CN(C)[C@@H]1C(O)=C(C(N)=O)C(=O)[C@@]2(O)C(O)=C3C(=O)c4c(O)cccc4[C@@](C)(O)[C@H]3C[C@@H]12` [tetracycline], for which the zone of inhibition at 50 µg/mL in experiment [3] (KCTC1916, Control Group Antibiotic: tetracycline (50 μg/mL), read-out: Clear Zone (ø, mm) S. aureus) is 22.8 mm; in experiment [4] it was 9 mm; in experiment [5] (Escherichia coli, KCTC2571, Control Group Antibiotic: tetracycline (50 μg/mL), read-out: Clear Zone (ø, mm) E. coli) it was 25.6 mm. Moreover, the zone of inhibition at 100 µg/mL in experiment [3] (KCTC1916, Table 19 Antibiotic: tetracycline (100 μg/mL), read-out: Clear zone (ø, mm) S. aureus) amounted to 18.2 mm; in experiment [5] (Escherichia coli, KCTC2571, Table 19 Antibiotic: tetracycline (100 μg/mL), read-out: Clear zone (ø, mm) E. coli), 14.2 mm. In experiment [5] (Control Group Antibiotic: tetracycline (50 μg/mL)), the “Clear Zone (ø, mm) E. coli” value is 19.6 mm and 18.2 mm and 18.5 mm and 20.7 mm and 15.7 mm and 17.8 mm and 14.2 mm.
